Values of other authors in patent US11564963B2, “Topical compositions, process of large-scale manufacture, and method of use” (Progeneron, LLC, priority 2017, dated 2023).
Values after ≈ are worked out from the molar mass of the structure shown.

Experiments:
[1] = 20° C.
[2] = rats
[3] = system: Gram-negative bacteria and fungi

NC(=O)c1cccnc1 [Niacinamide]
solubility in water [1]: 691 mg/mL (≈ 5660 mM)
pKa: about 3.35

OCc1ccccc1 [Benzyl Alcohol]
LD50 [2]: 1.2 gm/kg

[H]/N=C(\N/C(=N/[H])NCCCCCCNC(=N)NC(=N)Nc1ccc(Cl)cc1)Nc1ccc(Cl)cc1 [Chlorhexidine]
concentrations required for Gram-negative bacteria and fungi [3]: 10 to 73 µg/mL
